Experiments:
[1] = system: PC-3; assay: Cytotoxicity against Homo sapiens (human) PC3 cells assessed as growth inhibition at 100 uM after 48 hr by MTT assay; type: functional; settings: PC-3, 48 h, read-out: GI
[2] = system: A549; assay: Cytotoxicity against Homo sapiens (human) A549 cells assessed as growth inhibition at 100 uM after 48 hr by MTT assay; type: functional; settings: A549, 48 h, read-out: GI
[3] = system: PC-3; assay: Cytotoxicity against Homo sapiens (human) PC3 cells assessed as growth inhibition after 48 hr by MTT assay; type: functional
[4] = system: A549; assay: Cytotoxicity against Homo sapiens (human) A549 cells assessed as growth inhibition after 48 hr by MTT assay; type: functional, cell-based; settings: for IC50: Homo sapiens, A549, 48 h

Compound | inhibition of growth at 100 µM [1] [%] | inhibition of growth at 100 µM [2] [%] | growth inhibition (GI) [3] [%] | growth inhibition (GI) [4] | IC50 [4] [µM] | growth inhibition (GI) ([4]; record 2) [%]
CN1CCN(C(=O)c2ccc(NC(=O)Nc3cccc(C(F)(F)F)c3)cc2)CC1 | 37.1 | 21.2 | – | – | – | –
CN1CCN(C(=O)c2ccc(NC(=O)Nc3ccc(Cl)c(C(F)(F)F)c3)cc2)CC1 | 25.5 | 22.6 | – | – | – | –
Cc1cc(NC(=O)Nc2ccc(C(=O)N3CCN(C)CC3)cc2)ccc1Cl | 35.1 | 27.5 | – | – | – | –
CN1CCN(C(=O)c2ccc(NC(=O)Nc3ccc(Cl)c(Cl)c3)cc2)CC1 | 28 | 36.5 | – | – | – | –
CN1CCN(C(=O)c2ccc(NC(=O)Nc3cccc(C(=O)N4CCCCC4)c3)cc2)CC1 | 31.1 | 19.7 | – | – | – | –
CNC(=O)c1cc(Oc2ccc(NC(=O)Nc3ccc(Cl)c(C(F)(F)F)c3)cc2)ccn1 [SORAFENIB] | – | – | 91.4 | Dose-dependent effect | 6.08 | 94.8
CC(=O)Nc1nc2ccc(NC(=O)Nc3ccc(C(=O)N4CCN(C)CC4)cc3)cc2s1 | – | 93.5 | – | Dose-dependent effect | 0.57 | –
CN1CCN(C(=O)c2ccc(NC(=O)Nc3ccc(F)c(F)c3)cc2)CC1 | 27.6 | 43.1 | – | – | – | –
CN1CCN(C(=O)c2ccc(NC(=O)Nc3ccc(OCc4cccc(F)c4)c(Cl)c3)cc2)CC1 | 82.7 | 74 | – | – | 10.8 | –
C#Cc1cccc(NC(=O)Nc2ccc(C(=O)N3CCN(C)CC3)cc2)c1 | 49.3 | 45.4 | – | – | – | –
COc1cc(NC(=O)Nc2ccc(C(=O)N3CCN(C)CC3)cc2)cc(OC)c1 | 40 | 28.6 | – | – | – | –
CN1CCN(C(=O)c2ccc(NC(=O)Nc3ccc(F)c(Cl)c3)cc2)CC1 | 29.9 | 28.4 | – | – | – | –

Reference: ChEMBL document CHEMBL3046581, “Synthesis and cytotoxic activity of diaryl urea derivatives with a 4-methylpiperazinylcarbonyl moiety” (Med Chem Res, 2013)
